ChEMBL document CHEMBL4680224, “Discovery of pyridine tetrahydroisoquinoline thiohydantoin derivatives with low blood-brain barrier penetration as the androgen receptor antagonists” (Eur J Med Chem, 2020)

What was measured:
LNCaP [1] = test: Antiproliferative activity against human LNCaP cells assessed as reduction in cel viability after 72 hrs by MTT assay; format: functional, cell-based
DU-145 = test: Antiproliferative activity against human DU-145 cells assessed as reduction in cel viability after 72 hrs by MTT assay; format: functional, cell-based; settings: DU-145, 72 h
LNCaP [2] = test: Antitumour activity against human LNCaP cells xenografted in BALB/c nude mouse assessed as reduction in tumour weight at 45 mg/kg, po administered daily for 21 days relative to control; format: functional; settings: time 21 day
[3] = Half life in human liver microsomes at 10 uM; format: ADME, Microsome
LNCaP [4] = test: Antitumour activity against human LNCaP cells xenografted in BALB/c nude mouse assessed as decrease in PSA level at 45 mg/kg, po administered daily for 21 days by ELISA relative to control; format: functional; parameters: scale not given: the % may be the effect or the level left; settings: time 21 day
[5] = Antagonist activity at GABAA receptor (unknown origin) by radioligand binding assay
[6] = Stability in human liver microsomes assessed as parent compound remaining at 10 uM; format: ADME, Microsome; settings: read-out: Stabilty

| IC50 (LNCaP [1]) [µM] | IC50 (DU-145) [µM] | SMILES | other results |
| --- | --- | --- | --- |
| 25.9 | > 100 | COc1ccc2c(c1)CN1C(=S)N(c3cnc(C#N)c(C(F)(F)F)c3)C(=O)C1C2 (stereo unspecified) | – |
| 47.5 | 72.2 | CC(O)CNC(=O)c1cc2c(cc1F)CC1C(=O)N(c3cnc(C#N)c(C(F)(F)F)c3)C(=S)N1C2 (stereo unspecified) | – |
| 27.9 | > 100 | CCCC(=O)Nc1cc2c(cc1F)CC1C(=O)N(c3cnc(C#N)c(C(F)(F)F)c3)C(=S)N1C2 (stereo unspecified) | – |
| 32.5 | 89.7 | CCCC(=O)Nc1ccc2c(c1)CCC1C(=O)N(c3cnc(C#N)c(C(F)(F)F)c3)C(=S)N21 (stereo unspecified) | – |
| 34.2 | > 100 | CCCC(=O)Nc1ccc2c(c1)CN1C(=S)N(c3cnc(C#N)c(C(F)(F)F)c3)C(=O)C1C2 (stereo unspecified) | – |
| 23.1 | 54.1 | CC(=O)Nc1ccc2c(c1)CN1C(=S)N(c3cnc(C#N)c(C(F)(F)F)c3)C(=O)C1C2 (stereo unspecified) | – |
| 36.7 | 83.6 | CNC(=O)c1ccc2c(c1)CN1C(=S)N(c3cnc(C#N)c(C(F)(F)F)c3)C(=O)C1C2 (stereo unspecified) | – |
| 65.9 | 91.7 | CCOc1ccc2c(c1)CN1C(=S)N(c3cnc(C#N)c(C(F)(F)F)c3)C(=O)C1C2 (stereo unspecified) | – |
| 34.2 | 71.3 | CC(CO)NC(=O)c1cc2c(cc1F)CC1C(=O)N(c3cnc(C#N)c(C(F)(F)F)c3)C(=S)N1C2 (stereo unspecified) | – |
| 60.4 | 81.1 | N#Cc1ncc(N2C(=O)C3Cc4cc(Br)c(O)c(Br)c4CN3C2=S)cc1C(F)(F)F (stereo unspecified) | – |
| 85.9 | 96.3 | COc1c(Br)cc2c(c1Br)CN1C(=S)N(c3cnc(C#N)c(C(F)(F)F)c3)C(=O)C1C2 (stereo unspecified) | – |
| 48.7 | 83.9 | CCCCS(=O)(=O)Nc1ccc2c(c1)N1C(=S)N(c3cnc(C#N)c(C(F)(F)F)c3)C(=O)C1CC2 (stereo unspecified) | – |
| 17 | > 100 | CCOC(=O)CCCOc1ccc2c(c1)CN1C(=S)N(c3cnc(C#N)c(C(F)(F)F)c3)C(=O)C1C2 (stereo unspecified) | – |
| > 100 | > 100 | CS(=O)(=O)Nc1ccc2c(c1)N1C(=S)N(c3cnc(C#N)c(C(F)(F)F)c3)C(=O)C1CC2 (stereo unspecified) | – |
| 72.3 | 92.4 | N#Cc1ncc(N2C(=O)C3Cc4ccc(C(=O)NC5CCCCC5)cc4CN3C2=S)cc1C(F)(F)F (stereo unspecified) | – |
| 58.4 | 75.5 | COC(=O)c1ccc2c(c1)CN1C(=S)N(c3cnc(C#N)c(C(F)(F)F)c3)C(=O)C1C2 (stereo unspecified) | – |
| 79 | > 100 | CS(=O)(=O)Nc1cc2c(cc1F)CC1C(=O)N(c3cnc(C#N)c(C(F)(F)F)c3)C(=S)N1C2 (stereo unspecified) | – |
| 41.2 | > 100 | CC(=O)Nc1ccc2c(c1)CCC1C(=O)N(c3cnc(C#N)c(C(F)(F)F)c3)C(=S)N21 (stereo unspecified) | – |
| 90.2 | > 100 | CS(=O)(=O)Nc1ccc2c(c1)CN1C(=S)N(c3cnc(C#N)c(C(F)(F)F)c3)C(=O)C1C2 (stereo unspecified) | – |
| 75.7 | > 100 | N#Cc1ncc(N2C(=O)C3Cc4ccc([N+](=O)[O-])cc4CN3C2=S)cc1C(F)(F)F (stereo unspecified) | – |
| > 100 | > 100 | N#Cc1ncc(N2C(=O)C3Cc4ccc(C(=O)O)cc4CN3C2=S)cc1C(F)(F)F (stereo unspecified) | – |
| 32.1 | > 100 | N#Cc1ncc(N2C(=O)C3Cc4cc(F)c(N)cc4CN3C2=S)cc1C(F)(F)F (stereo unspecified) | – |
| 12.2 | > 100 | CCOC(=O)Nc1ccc2c(c1)CN1C(=S)N(c3cnc(C#N)c(C(F)(F)F)c3)C(=O)C1C2 (stereo unspecified) | – |
| 46 | 97.8 | CCCC(=O)Nc1ccc2c(c1)N1C(=S)N(c3cnc(C#N)c(C(F)(F)F)c3)C(=O)C1CC2 (stereo unspecified) | – |
| 54.7 | 90.1 | CCCCS(=O)(=O)Nc1ccc2c(c1)CCC1C(=O)N(c3cnc(C#N)c(C(F)(F)F)c3)C(=S)N21 (stereo unspecified) | – |
| 39.9 | > 100 | CCC(=O)Nc1ccc2c(c1)CCC1C(=O)N(c3cnc(C#N)c(C(F)(F)F)c3)C(=S)N21 (stereo unspecified) | – |
| 43.8 | 67.4 | CNC(=O)c1cc2c(cc1F)CC1C(=O)N(c3cnc(C#N)c(C(F)(F)F)c3)C(=S)N1C2 (stereo unspecified) | – |

| IC50 (LNCaP [1]) [µM] | IC50 (DU-145) [µM] | SMILES | other results |
| --- | --- | --- | --- |
| > 100 | > 100 | N#Cc1ncc(N2C(=O)C3Cc4cc(F)c(C(=O)O)cc4CN3C2=S)cc1C(F)(F)F (stereo unspecified) | – |
| 29.3 | 53.2 | CCNC(=O)c1ccc2c(c1)CN1C(=S)N(c3cnc(C#N)c(C(F)(F)F)c3)C(=O)C1C2 (stereo unspecified) | – |
| 102 | > 100 | CCCCS(=O)(=O)Nc1cc2c(cc1F)CC1C(=O)N(c3cnc(C#N)c(C(F)(F)F)c3)C(=S)N1C2 (stereo unspecified) | – |
| 29 | 83.4 | N#Cc1ncc(N2C(=O)C3Cc4cc(F)c([N+](=O)[O-])cc4CN3C2=S)cc1C(F)(F)F (stereo unspecified) | – |
| 28.3 | > 100 | CC(=O)Nc1cc2c(cc1F)CC1C(=O)N(c3cnc(C#N)c(C(F)(F)F)c3)C(=S)N1C2 (stereo unspecified) | – |
| 44.7 | > 100 | N#Cc1ncc(N2C(=O)C3Cc4ccc(N)cc4CN3C2=S)cc1C(F)(F)F (stereo unspecified) | – |
| 55.5 | 86.2 | COC(=O)c1cc2c(cc1F)CC1C(=O)N(c3cnc(C#N)c(C(F)(F)F)c3)C(=S)N1C2 (stereo unspecified) | – |
| 20 | > 100 | CCCCOc1ccc2c(c1)CN1C(=S)N(c3cnc(C#N)c(C(F)(F)F)c3)C(=O)C1C2 (stereo unspecified) | – |
| 23.7 | > 100 | CCOC(=O)Nc1ccc2c(c1)CCC1C(=O)N(c3cnc(C#N)c(C(F)(F)F)c3)C(=S)N21 (stereo unspecified) | – |
| 48.8 | > 100 | CCC(=O)Nc1ccc2c(c1)N1C(=S)N(c3cnc(C#N)c(C(F)(F)F)c3)C(=O)C1CC2 (stereo unspecified) | – |
| 16.5 | 49.3 | CNC(=O)c1ccc(N2C(=S)N(c3ccc(C#N)c(C(F)(F)F)c3)C(=O)C2(C)C)cc1F [ENZALUTAMIDE] | TGI (LNCaP [2]): 68%; half-life at 10 µM [3]: 6.69 h; Activity (LNCaP [4]): 57%; IC50 [5]: 2.7 µM; remaining at 10 µM [6]: 90.3% |
| 20.1 | 92.5 | CCCNC(=O)c1cc2c(cc1F)CC1C(=O)N(c3cnc(C#N)c(C(F)(F)F)c3)C(=S)N1C2 (stereo unspecified) | – |
| 22.9 | 81.1 | CCC(=O)Nc1ccc2c(c1)CN1C(=S)N(c3cnc(C#N)c(C(F)(F)F)c3)C(=O)C1C2 (stereo unspecified) | – |
| 18.1 | 90.4 | CCCNC(=O)c1ccc2c(c1)CN1C(=S)N(c3cnc(C#N)c(C(F)(F)F)c3)C(=O)C1C2 (stereo unspecified) | – |
| 35.7 | 90.3 | CCOC(=O)Nc1ccc2c(c1)N1C(=S)N(c3cnc(C#N)c(C(F)(F)F)c3)C(=O)C1CC2 (stereo unspecified) | – |
| 44.9 | 88 | CC(CO)NC(=O)c1ccc2c(c1)CN1C(=S)N(c3cnc(C#N)c(C(F)(F)F)c3)C(=O)C1C2 (stereo unspecified) | – |
| 11.6 | 89.4 | CCCCNC(=O)c1ccc2c(c1)CN1C(=S)N(c3cnc(C#N)c(C(F)(F)F)c3)C(=O)C1C2 (stereo unspecified) | – |
| 16.3 | 93.8 | CCCCNC(=O)c1cc2c(cc1F)CC1C(=O)N(c3cnc(C#N)c(C(F)(F)F)c3)C(=S)N1C2 (stereo unspecified) | – |
| 27.7 | > 100 | CCC(=O)Nc1cc2c(cc1F)CC1C(=O)N(c3cnc(C#N)c(C(F)(F)F)c3)C(=S)N1C2 (stereo unspecified) | – |
| 21.6 | > 100 | N#Cc1ncc(N2C(=O)C3Cc4ccccc4CN3C2=S)cc1C(F)(F)F (stereo unspecified) | – |
| 84.1 | 84.4 | CCCCS(=O)(=O)Nc1ccc2c(c1)CN1C(=S)N(c3cnc(C#N)c(C(F)(F)F)c3)C(=O)C1C2 (stereo unspecified) | – |
| 84.7 | 67.6 | N#Cc1ncc(N2C(=O)C3Cc4cc(F)c(C(=O)NC5CCCCC5)cc4CN3C2=S)cc1C(F)(F)F (stereo unspecified) | – |
| > 100 | > 100 | CS(=O)(=O)Nc1ccc2c(c1)CCC1C(=O)N(c3cnc(C#N)c(C(F)(F)F)c3)C(=S)N21 (stereo unspecified) | – |
| 32.3 | 91.4 | CCNC(=O)c1cc2c(cc1F)CC1C(=O)N(c3cnc(C#N)c(C(F)(F)F)c3)C(=S)N1C2 (stereo unspecified) | – |
| 29.1 | 83.9 | N#Cc1ncc(N2C(=O)C3Cc4ccc(C(=O)NCCO)cc4CN3C2=S)cc1C(F)(F)F (stereo unspecified) | – |
| 89.7 | > 100 | CC(=O)Nc1ccc2c(c1)N1C(=S)N(c3cnc(C#N)c(C(F)(F)F)c3)C(=O)C1CC2 (stereo unspecified) | – |
